Some results are limits rather than exact numbers.

The experiment deals with T1, cMET receptor tyrosine kinase (GST-cMET (969-1390)) (Homo sapiens, UniProt P08581).
T1 construct: made in house
T1 sequence (P08581 969-1390): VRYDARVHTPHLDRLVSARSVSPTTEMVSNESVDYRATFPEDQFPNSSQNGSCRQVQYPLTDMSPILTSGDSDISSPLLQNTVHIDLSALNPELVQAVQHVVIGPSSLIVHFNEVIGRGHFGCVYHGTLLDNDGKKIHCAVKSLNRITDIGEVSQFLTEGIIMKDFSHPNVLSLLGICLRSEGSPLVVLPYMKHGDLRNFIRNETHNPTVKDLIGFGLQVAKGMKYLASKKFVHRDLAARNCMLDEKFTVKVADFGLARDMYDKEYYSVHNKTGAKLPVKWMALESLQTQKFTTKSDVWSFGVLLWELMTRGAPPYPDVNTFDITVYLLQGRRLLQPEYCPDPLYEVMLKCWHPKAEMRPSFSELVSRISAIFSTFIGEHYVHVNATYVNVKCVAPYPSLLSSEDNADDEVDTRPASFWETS
As to the kind of experiment: EPK cMET profiling assay (LanthaScreen TR-FRET antibody based kinase phosphorylation assay). The class given is biochemical. The conditions noted are these: purified recombinant GST-cMET (969-1390), 2 μM ATP, 50 nM Fluorescein-PolyEAY, 60 minutes at room temperature; read-out: c-Met IC50. The essentials:
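Compounds tested at eight final concentrations from 10 down to 0.003 µM against affinity-purified GST-cMET (969-1390, 0.3 nM) with 2 µM ATP and 50 nM fluorescein-PolyEAY in Tris buffer with MgCl2 and MnCl2, 1 h at room temperature. After EDTA stop, phosphoproduct detected by LanthaScreen TR-FRET with Tb-PY20 antibody, end-point measurement.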
(In general: Time-resolved FRET reads energy transfer from a long-lived donor to a nearby acceptor.)
By IC50 is commonly meant the concentration needed to halve the response being measured. Take `O[C@@H]1CCN(c2ccc3ncc(Cc4ccc5ncccc5c4)n3n2)C1` [Example 108, (R)-1-(3-Quinolin-6-ylmethyl-imidazo[1,2-b]pyridazin-6-yl)-pyrrolidin-3-ol]: the concentration for half-maximal inhibition (IC50) is 9.8 nM. The value for `CC(c1ccc2ncc(Br)n2c1)c1cnc2ccc(-c3cnn(C)c3)nn12` (racemic) [Example 309, (rac)-3-[1-(3-Bromo-imidazo[1,2-a]pyridin-6-yl)-ethyl]-6-(1-methyl-1H-pyrazol-4-yl)imidazo[1,2-b]pyridazine] was 16 nM; that for `Cn1cc(-c2ccc3ncc(Cc4c(F)cc5ncccc5c4F)n3n2)cn1` [Example 170, 5,7-Difluoro-6-[6-(1-methyl-1H-pyrazol-4-yl)-imidazo[1,2-b]pyridazin-3-ylmethyl]-quinoline] was 6 nM; that for `CC(c1ccc2ncn(C)c2c1)c1cnc2ccc(-c3cnn(CCO)c3)nn12` (racemic) [Example 185, (rac)-2-(4-{3-[1-(3-Methyl-3H-benzoimidazol-5-yl)-ethyl]-imidazo[1,2-b]pyridazin-6-yl}-pyrazol-1-yl)-ethanol] was 56 nM. As to `FC(F)(F)c1cccc(Nc2ccc3ncc(Cc4ccc5ncccc5c4)n3n2)c1` [Example 127, (3-Quinolin-6-ylmethyl-imidazo[1,2-b]pyridazin-6-yl)-(3-trifluoromethyl-phenyl)-amine], the 50% inhibitory concentration (IC50) is 90 nM.

For the compound `Cn1ccc2cc(-c3ccc4ncc(Cc5ccc6ncccc6c5)n4n3)ccc21` [Example 37, 6-[6-(1-Methyl-1H-indol-5-yl)-imidazo[1,2-b]pyridazin-3-ylmethyl]-quinoline], the IC50 worked out at 30 nM. Then `CN1CCC(n2cc(-c3ccc4ncc(Cc5cc6cccnc6cc5F)n4n3)cn2)CC1` [Example 181, 7-Fluoro-6-{6-[1-(1-methyl-piperidin-4-yl)-1H-pyrazol-4-yl]-imidazo[1,2-b]pyridazin-3-ylmethyl}-quinoline], with 65 nM; and `c1ccc(-c2ccc3ncc(Cc4ccc5ncccc5c4)n3n2)cc1` [Example 30, 6-(6-Phenyl-imidazo[1,2-b]pyridazin-3-ylmethyl)-quinoline], with 91 nM. The value for `CC(c1ccc2ncccc2c1Cl)c1cnc2ccc(-c3cnn(C4CCN(C)CC4)c3)nn12` (stereo not shown) [Example 224, 5-Chloro-6-(1-{6-[1-(1-methyl-piperidin-4-yl)-1H-pyrazol-4-yl]-imidazo[1,2-b]pyridazin-3-yl}-ethyl)-quinoline] was 28 nM; that for `C[C@@H](c1c(F)cc2ncccc2c1F)c1cnc2ccc(-c3cnn(C)c3)nn12` [Example 192, 5,7-Difluoro-6-{(S)-1-[6-(1-methyl-1H-pyrazol-4-yl)-imidazo[1,2-b]pyridazin-3-yl]-ethyl}-quinoline] was < 3 nM.

For the compound `c1cncc(Nc2ccc3ncc(Cc4ccc5ncccc5c4)n3n2)c1` [Example 129, Pyridin-3-yl-(3-quinolin-6-ylmethyl-imidazo[1,2-b]pyridazin-6-yl)-amine], the IC50 amounted to 69 nM.

Regarding `CC(O)c1cnc2ccc(Cc3cnc4ccc(-c5cnn(C)c5)nn34)cn12` (stereo not shown) [Example 303, 1-{6-[6-(1-Methyl-1H-pyrazol-4-yl)-imidazo[1,2-b]pyridazin-3-ylmethyl]-imidazo[1,2-a]pyridin-3-yl}-ethanol], the half-inhibitory concentration (IC50) stood at 190 nM. The value for `CCn1cc(-c2ccc3ncc(Cc4ccc5ncccc5c4)n3n2)cn1` [Example 211, 6-[6-(1-Ethyl-1H-pyrazol-4-yl)-imidazo[1,2-b]pyridazin-3-ylmethyl]-quinoline] was 86 nM.

Consider `Cn1cnc2ccc(Cc3cnc4ccc(-c5cnn(CCO)c5)nn34)cc21` [Example 217, 2-{4-[3-(3-Methyl-3H-benzoimidazol-5-ylmethyl)-imidazo[1,2-b]pyridazin-6-yl]-pyrazol-1-yl}-ethanol], for which the IC50 was 84 nM. The value for `OCCNc1ccc2ncc(Cc3ccc4ncccc4c3)n2n1` [Example 92, 2-(3-Quinolin-6-ylmethyl-imidazo[1,2-b]pyridazin-6-ylamino)-ethanol] was 32 nM; that for `O[C@@H]1CCN(c2ccc3ncc(Cc4cc5cccnc5cc4F)n3n2)C1` [Example 262, (R)-1-[3-(7-Fluoro-quinolin-6-ylmethyl)-imidazo[1,2-b]pyridazin-6-yl]-pyrrolidin-3-ol] was 42 nM; that for `Cn1cc(-c2ccc3ncc(Cc4cc5cccnc5cc4F)n3n2)cn1` [Example 173, 7-Fluoro-6-[6-(1-methyl-1H-pyrazol-4-yl)-imidazo[1,2-b]pyridazin-3-ylmethyl]-quinoline] was 4 nM. Then `CCC(C)(C)Nc1ccc2ncc(Cc3ccc4ncccc4c3)n2n1` [Example 98, (1,1-Dimethyl-propyl)-(3-quinolin-6-ylmethyl-imidazo[1,2-b]pyridazin-6-yl)-amine], with 110 nM; and `Cn1cc(-c2ccc3ncc(Cc4c(F)cc5c(cnn5C)c4F)n3n2)cn1` [Example 284, 3-(4,6-Difluoro-1-methyl-1H-indazol-5-ylmethyl)-6-(1-methyl-1H-pyrazol-4-yl)-imidazo[1,2-b]pyridazine], with 150 nM; and `CCC(C)Nc1ccc2ncc(Cc3ccc4ncccc4c3)n2n1` (stereo not shown) [Example 78, sec-Butyl-(3-quinolin-6-ylmethyl-imidazo[1,2-b]pyridazin-6-yl)-amine], with 9 nM. Turning to `Clc1ccc(-c2ccc3ncc(Cc4ccc5ncccc5c4)n3n2)s1` [Example 41, 6-[6-(5-Chloro-thiophen-2-yl)-imidazo[1,2-b]pyridazin-3-ylmethyl]-quinoline], the IC50 was 56 nM. Then `CCn1cc(-c2ccc3ncc(Cc4cc5cccnc5cc4F)n3n2)cn1` [Example 250, 6-[6-(1-Ethyl-1H-pyrazol-4-yl)-imidazo[1,2-b]pyridazin-3-ylmethyl]-7-fluoro-quinoline], with 15 nM. In the case of `c1cnc2ccc(Cc3cnc4ccc(-c5cnn(CCN6CCCC6)c5)nn34)cc2c1` [Example 236, 6-{6-[1-(2-Pyrrolidin-1-yl-ethyl)-1H-pyrazol-4-yl]-imidazo[1,2-b]pyridazin-3-ylmethyl}-quinoline], the concentration for half-maximal inhibition (IC50) turned out to be 370 nM. As to `OCCNc1ccc2ncc(Cc3ccc4nccn4c3)n2n1` [Example 75, 2-(3-Imidazo[1,2-a]pyridin-6-ylmethyl-imidazo[1,2-b]pyridazin-6-ylamino)-ethanol], the IC50 was 300 nM.

Regarding `Clc1cccc(Nc2ccc3ncc(Cc4ccc5ncccc5c4)n3n2)c1Cl` [Example 136, (2,3-Dichloro-phenyl)-(3-quinolin-6-ylmethyl-imidazo[1,2-b]pyridazin-6-yl)-amine], the concentration for half-maximal inhibition (IC50) is 350 nM. The value for `c1cnc2ccc(Cc3cnc4ccc(-c5cc6ccccc6o5)nn34)cc2c1` [Example 31, 6-(6-Benzofuran-2-yl-imidazo[1,2-b]pyridazin-3-ylmethyl)-quinoline] was 230 nM; that for `c1cnc2ccc(Cc3cnc4ccc(-n5cccn5)nn34)cc2c1` [Example 134, 6-(6-Pyrazol-1-yl-imidazo[1,2-b]pyridazin-3-ylmethyl)-quinoline] was 570 nM. The value for `Clc1ccccc1Nc1ccc2ncc(Cc3ccc4ncccc4c3)n2n1` [Example 128, (2-Chloro-phenyl)-(3-quinolin-6-ylmethyl-imidazo[1,2-b]pyridazin-6-yl)-amine] was 29 nM.

These data come from patent US8822468B2 (Novartis AG, priority 2008, dated 2014).
